Test results taken from patent US12049463B2, “Crystalline form of Tolebrutinib” (GENZYME CORPORATION, priority 2020, dated 2024).
“Also recorded” adds a separate entry of the source. Values belong to the molecule of their own block, whether it stands above or below them.

Legend:
Type in all cases: physicochemical
[1] = Physical and chemical stability of Form CSI on storage (purity by UPLC, solid form by XRPD); settings: for Time for which crystalline state doesn't change (stable): open and sealed package
Source text: X-ray powder diffraction patterns in the present disclosure were acquired by a Bruker X-ray powder diffractometer. The parameters of the X-ray powder diffraction method of the present disclosure are as follows:
(§1) The related substance in the present disclosure was detected by UPLC and the parameters are shown below.
Said “open packaged” is putting the sample into a glass vial, covering the vial with aluminum foil, and punching 5-10 holes on the foil.
Said “sealed packaged” is putting the sample into a glass vial, capping the vial tightly, and sealing the vial in an aluminum foil bag.
A certain amount of Form CSI of the present disclosure and prior art amorphous were weighed and stored under 25° C./60% RH, 40° C./75% RH and 60° C./75% RH conditions, respectively. The purity and solid form were determined by UPLC and XRPD.

[2] = Hygroscopicity by dynamic vapor sorption (DVS); settings: for Weight gain at 80% RH: 25° C.; for Hygroscopicity class: weight gain at 80% RH, Chinese Pharmacopoeia definition
Description: Dynamic Vapor Sorption (DVS) was measured via an SMS (Surface Measurement Systems Ltd.) intrinsic DVS instrument. Typical Parameters for DVS test are as follows:
Gas and flow rate: nitrogen, 200 mL/min
RH range: 0% RH to 95% RH
Certain amounts of Form CSI of the present disclosure and prior art amorphous were sampled for hygroscopicity tests using dynamic vapor sorption (DVS) instrument. The weight change at each relative humidity is recorded during the cycle of 0% RH-95% RH-0% RH at 25° C., and the experimental results are listed in Table 12. The DVS plots of Form CSI and amorphous are as depicted in FIG. 8 and FIG. 9, respectively.
Description and definition of hygroscopicity (general notice 9103 drug hygroscopicity test guidelines in 2020 edition of Chinese Pharmacopoeia, experimental condition: 25±1° C., 80±2% RH): […]

[3] = Stability at high temperature (80° C., purity by UPLC); settings: for Chemical stability in words / Final purity / Purity change: 2 days; for Final purity / Purity change: glass vial with cap; for Initial purity: before storage at 80° C.
Description: as §1
Approximately 10 mg of Form CSI of the present disclosure and prior art amorphous were stored at 80° C. for 2 days, and the initial and final purities were determined by UPLC, as shown in Table 11.

[4] = XRPD before and after formulation process; settings: before and after the formulation process
Description: According to the formulation and process in Table 13 and Table 14, the drug products were prepared with an appropriate amount of Form CSI of the present disclosure. XRPD were tested before and after formulation.

[5] = 25° C./60% RH, open packaged, 6 months
[6] = 25° C./60% RH, sealed packaged, 6 months
[7] = 40° C./75% RH, open packaged, 6 months
[8] = 40° C./75% RH, sealed packaged, 6 months
[9] = 60° C./75% RH, open packaged, 1 month
[10] = 60° C./75% RH, sealed packaged, 1 month

- Impurity number exceed the qualificated threshold [1, 5]: 1
- Purity [1, 5]: 99.57%
- Purity change [1, 5]: −0.23%
- Solid form [1, 5]: Amorphous
- Impurity number exceed the qualificated threshold [1, 6]: 1
- Purity [1, 6]: 99.65%
- Purity change [1, 6]: −0.15%
- Solid form [1, 6]: Amorphous
- Purity decrease ([1]; 40° C./75% RH, open package, 6 months): 3.46%
- Impurity number exceed the qualificated threshold [1, 7]: 4
- Purity [1, 7]: 96.34%
- Purity change [1, 7]: −3.46%
- Solid form [1, 7]: Amorphous
- Impurity number exceed the qualificated threshold ([1]; 40° C./75% RH, open packaged, 6 months, listed as prior art amorphous): four
- Impurity number exceed the qualificated threshold ([1]; 40° C./75% RH, open packaged, 6 months, listed as prior art solid): four
- Impurity number exceed the qualificated threshold [1, 8]: 2
- Purity [1, 8]: 99.18%
- Purity change [1, 8]: −0.62%
- Solid form [1, 8]: Amorphous
- Purity decrease ([1]; 60° C./75% RH, open package, 1 month): over 6.3%
- Impurity number exceed the qualificated threshold [1, 9]: 4
- Purity [1, 9]: 93.48%
- Purity change [1, 9]: −6.32%
- Solid form [1, 9]: Amorphous
- Impurity number exceed the qualificated threshold ([1]; 60° C./75% RH, open packaged, 1 month, listed as prior art amorphous): four
- Impurity number exceed the qualificated threshold ([1]; 60° C./75% RH, open packaged, 1 month, listed as prior art solid): four
- Purity decrease ([1]; 60° C./75% RH, sealed package, 1 month): 2.76%
- Impurity number exceed the qualificated threshold [1, 10]: 2
- Purity [1, 10]: 97.04%
- Purity change [1, 10]: −2.76%
- Solid form [1, 10]: Amorphous
- Impurity number exceed the qualificated threshold ([1]; 60° C./75% RH, sealed packaged, 1 month, listed as prior art amorphous): two
- Impurity number exceed the qualificated threshold ([1]; 60° C./75% RH, sealed packaged, 1 month, listed as prior art solid): two
- Impurity number exceed the qualificated threshold ([1]; Initial (before storage)): 1
- Purity ([1]; Initial (before storage)): 99.80%
- Weight gain at 80% RH ([2]; DVS, listed as Prior art solid): 3.69%
- Weight gain at 80% RH ([2]; DVS, listed as prior art solid): 3.69%
- Hygroscopicity class ([2]; listed as prior art solid): hygroscopic
- Chemical stability in words ([3]; 80° C.): significant degradation
- Final purity ([3]; 80° C.): 98.64%
- Purity change ([3]; 80° C.): −1.16%
- Initial purity [3]: 99.80%
SMILES: C=CC(=O)N1CCC[C@@H](n2c(=O)n(-c3ccc(Oc4ccccc4)cc3)c3c(N)nccc32)C1 [Amorphous, (R)-1-(1-acryloylpiperidin-3-yl)-4-amino-3-(4-phenoxyphenyl)-1H-imidazo[4,5-c]pyridin-2(3H)-one]

- Physical stability on formulation process (XRPD) [4]: physically stable
- Chemical purity during storage ([1]; 25° C./60% RH, 6 months): above 99.8%
- Time for which crystalline state doesn't change (stable) ([1]; 25° C./60% RH): at least 6 months
- Impurity number exceed the qualificated threshold [1, 5]: 0
- Purity [1, 5]: 99.81%
- Purity change [1, 5]: −0.05%
- Solid form [1, 5]: Form CSI
- Impurity number exceed the qualificated threshold [1, 6]: 0
- Purity [1, 6]: 99.89%
- Purity change [1, 6]: 0.03%
- Solid form [1, 6]: Form CSI
- Chemical purity during storing ([1]; 40° C./75% RH 6 months and 60° C./75% RH 1 month): above 99.8%
- Time for which crystalline state doesn't change (stable) ([1]; 40° C./75% RH): at least 6 months
- Impurity number exceed the qualificated threshold [1, 7]: 0
- Purity [1, 7]: 99.81%
- Purity change [1, 7]: −0.05%
- Solid form [1, 7]: Form CSI
- Impurity number exceed the qualificated threshold [1, 8]: 0
- Purity [1, 8]: 99.92%
- Purity change [1, 8]: 0.06%
- Solid form [1, 8]: Form CSI
- Time for which crystalline state doesn't change ([1]; 60° C./75% RH, open or sealed package): at least 1 month
- Impurity number exceed the qualificated threshold [1, 9]: 0
- Purity [1, 9]: 99.86%
- Purity change [1, 9]: 0.00%
- Solid form [1, 9]: Form CSI
- Impurity number exceed the qualificated threshold [1, 10]: 0
- Purity [1, 10]: 99.85%
- Purity change [1, 10]: −0.01%
- Solid form [1, 10]: Form CSI
- Impurity number exceed the qualificated threshold ([1]; Initial (before storage)): 0
- Purity ([1]; Initial (before storage)): 99.86%
- Weight gain of Form CSI relative to that of the prior art ([2]; DVS): 1/7
- Weight gain at 80% RH ([2]; DVS): 0.53%
- Hygroscopicity class [2]: slightly hygroscopic
- Time for which chemical purity remains substantially unchanged ([3]; 80° C.): at least 2 days
- Chemical stability in words ([3]; 80° C.): basically remains unchanged
- Final purity ([3]; 80° C.): 99.95%
- Purity change ([3]; 80° C.): 0.01%
- Initial purity [3]: 99.94%
SMILES: C=CC(=O)N1CCC[C@@H](n2c(=O)n(-c3ccc(Oc4ccccc4)cc3)c3c(N)nccc32)C1 [Form CSI, (R)-1-(1-acryloylpiperidin-3-yl)-4-amino-3-(4-phenoxyphenyl)-1H-imidazo[4,5-c]pyridin-2(3H)-one]
- Impurity content versus the qualificated threshold ([1]; throughout the stability investigation processes): does not exceed the qualificated threshold; also recorded: did not exceed the qualificated threshold
